ChEMBL document CHEMBL6092181, “Design, synthesis, and biological evaluation of imidazo[4,5-b]pyridine mitochondrial uncouplers for the treatment of metabolic dysfunction-associated steatohepatitis (MASH)” (Eur J Med Chem, 2024)
Calls of active or inactive are those of the source. The calls are words filed in the database; no cut-off is given here.

Legend:
L6 [1] = test: Uncoupling activity in rat L6 myoblasts assessed as oxygen consumption rate incubated over 90 mins; assay type: functional, cell-based
L6 [2] = test: Uncoupling activity in rat L6 myoblasts assessed as oxygen consumption rate incubated for 2 mins relative to N5,N6-bis(2-fluorophenyl)-[1,2,5]oxadiazolo[3,4-b]pyrazine-5,6-diamine; assay type: functional
[3] = Cmax in C57BL/6 mouse at 10 mg/kg, po by LC-MS/MS method; assay type: ADME, organism-based; conditions: in vivo
[4] = Half-life in C57BL/6 mouse at 10 mg/kg, po by LC-MS/MS method; assay type: ADME, organism-based; conditions: in vivo
[5] = Toxicity in C57BL/6 mouse assessed as change in body temperature at 30 to 1000 mg/kg, po measured after 24 hrs; assay type: organism-based; conditions: in vivo, dose 30-1000 mg/kg
[6] = Cmax in C57BL/6 mouse at 30 mg/kg, po by LC-MS/MS method; assay type: ADME, organism-based; conditions: in vivo
Mus musculus [7] = test: Anti-MASH activity in GAN-diet induced metabolic dysfunction associated steatohepatitis in C57BL/6 mouse assessed as change in plasma triglyceride level at 100 to 300 mg/kg, po administered daily measured after 4 weeks; assay type: functional, organism-based; conditions: dose 100-300 mg/kg
[8] = Induction of respiration in rat L6 cells assessed as oxygen consumption rate at 3.3 uM pretreated with compound followed by N5,N6-bis(2-fluorophenyl)-[1,2,5]oxadiazolo[3,4-b]pyrazine-5,6-diamine addition; assay type: functional
L6 [9] = test: Uncoupling activity in rat L6 cells assessed as increase in oxygen consumption rate incubated for 40 mins in presence of rotenone; assay type: functional, cell-based
Mus musculus [10] = test: Anti-MASH activity in GAN-diet induced metabolic dysfunction associated steatohepatitis in C57BL/6 mouse assessed as decrease in liver triglyceride level at 100 to 300 mg/kg, po administered daily measured after 4 weeks; assay type: functional, organism-based; conditions: dose 100-300 mg/kg
[11] = Induction of respiration in rat L6 cells assessed as oxygen consumption rate at 3.3 uM; assay type: functional
Mus musculus [12] = test: Anti-MASH activity in GAN-diet induced metabolic dysfunction associated steatohepatitis in C57BL/6 mouse assessed as change in plasma cholesterol level at 100 to 300 mg/kg, po administered daily measured after 4 weeks; assay type: functional, organism-based; conditions: dose 100-300 mg/kg
[13] = Toxicity in C57BL/6 mouse assessed as change in body weight at 30 to 1000 mg/kg, po measured after 24 hrs; assay type: organism-based; conditions: in vivo, dose 30-1000 mg/kg
[14] = Toxicity in C57BL/6 mouse assessed as change in appetite at 30 to 1000 mg/kg, po measured after 24 hrs; assay type: organism-based; conditions: in vivo, dose 30-1000 mg/kg
[15] = Half-life in C57BL/6 mouse at 30 mg/kg, po by LC-MS/MS method; assay type: ADME, organism-based; conditions: in vivo
L6 [16] = test: Uncoupling activity in rat L6 cells assessed as increase in oxygen consumption rate incubated for 40 mins in presence of antimycin A; assay type: functional, cell-based
[17] = Toxicity in C57BL/6 mouse assessed as adverse effect at 30 to 1000 mg/kg, po measured after 24 hrs; assay type: organism-based; conditions: in vivo, dose 30-1000 mg/kg
Mus musculus [18] = test: Anti-MASH activity in GAN-diet induced metabolic dysfunction associated steatohepatitis in C57BL/6 mouse assessed as change in liver size at 100 to 300 mg/kg, po administered daily measured after 4 weeks; assay type: functional, organism-based; conditions: dose 100-300 mg/kg
[19] = Toxicity in C57BL/6 mouse assessed as change in body weight at 100 to 300 mg/kg, po administered daily and measured after 31 days; assay type: organism-based; conditions: in vivo, 744 h, dose 100-300 mg/kg, time 31 day
L6 [20] = test: Cytotoxicity against rat L6 cells; assay type: toxicity, cell-based
[21] = Rattus norvegicus, L6, 1.5 h, read-out: EC50

Row | SMILES | EC50 (L6 [1]; [21]) | Activity (L6 [2]) | other results
1 | FC(F)(F)c1ccc(-c2ccnc3[nH]c(C(F)(F)C(F)(F)F)nc23)cc1 | 4.69 µM | 31% | 
2 | Fc1ccc(-c2ccnc3[nH]c(C(F)(F)F)nc23)cc1F | 4.4 µM | 34% | 
3 | CC(=O)c1ccc(-c2ccnc3[nH]c(C(F)(F)F)nc23)cc1 | > 100 µM | 21% | 
4 | FC(F)(F)c1ccc(-c2ccnc3[nH]c(C(F)(F)F)nc23)cc1 | 1.3 µM | 46% | Cmax [3]: 8 µM; half-life [4]: 3.4 h
5 | COc1ccc(-c2ccnc3[nH]c(C(F)(F)F)nc23)cc1 |  |  | EC50 (L6 [1]; l6): Not_active
6 | FC(F)(F)c1nc2c(-c3ccc(Cl)cc3)ccnc2[nH]1 | > 100 µM | 22% | 
7 | FC(F)(F)c1nc2c(-c3ccccc3)ccnc2[nH]1 |  |  | EC50 (L6 [1]; l6): Not_active
8 | FC(F)(F)c1ccc(-c2ccnc3[nH]c(C(F)(F)F)nc23)cn1 | 2.6 µM | 25% | 
9 | FC(F)(F)c1cccc(-c2ccc3nc(C(F)(F)F)[nH]c3n2)c1 | 3 µM | 36% | 
10 | Fc1cc(F)cc(-c2ccc3nc(C(F)(F)F)[nH]c3n2)c1 | 3.8 µM | 32% | 
11 | Fc1cc(F)cc(-c2ccnc3[nH]c(C(F)(F)F)nc23)c1 | 1.5 µM | 42% | Cmax [3]: 37 µM; half-life [4]: 2.8 h
12 | FC(F)(F)Oc1cccc(-c2ccc3nc(C(F)(F)F)[nH]c3n2)c1 | 1.4 µM | 8% | 
13 | FC(F)(F)c1cccc(-c2ccnc3[nH]c(C(F)(F)F)nc23)c1 | 0.85 µM | 42% | Cmax [3]: 28 µM; half-life [4]: 5.5 h
14 | FC(F)(F)Oc1cccc(-c2ccnc3[nH]c(C(F)(F)F)nc23)c1 | 0.83 µM | 41% | Cmax [3]: 22 µM; Activity [5]: Non-toxic; Cmax [6]: 34.7 µM; Activity (Mus musculus [7]): inactive; half-life [4]: 1.3 h; Activity [8]: 300%; Activity (L6 [9]): inactive; Activity (Mus musculus [10]): Active; Activity [11]: 200%; Activity (Mus musculus [12]): inactive; Activity [13]: Non-toxic; Activity [14]: Non-toxic; half-life [15]: 3.7 h; Activity (L6 [16]): inactive; Activity [17]: Non-toxic; Activity (Mus musculus [18]): inactive; Activity [19]: Non-toxic
15 | Cc1ccnc2[nH]c(C(F)(F)F)nc12 |  |  | EC50 (L6 [1]; l6): Not_active
16 | Fc1ccccc1-c1ccnc2[nH]c(C(F)(F)F)nc12 | 19.4 µM | 18% | 
17 | FC(F)(F)c1ccc(-c2ccc3nc(C(F)(F)F)[nH]c3n2)cc1 | 1 µM | 11% | 
18 | Fc1ccc(F)c(-c2ccnc3[nH]c(C(F)(F)F)nc23)c1 | 15 µM | 54% | 
19 | FC(F)(F)c1nc2c(-c3cccc(Cl)c3)ccnc2[nH]1 | 2 µM | 32% | Cmax [3]: 18 µM; half-life [4]: 3 h
20 | FC(F)(F)c1nc2c(Cl)ccnc2[nH]1 | 29.8 µM | 14% | 
21 | Fc1ccc(-c2ccc3nc(C(F)(F)F)[nH]c3n2)cc1 | 15 µM | 42% | 
22 | FC(F)(F)c1ccc(-c2ccc3nc(C(F)(F)F)[nH]c3n2)cn1 | 11.9 µM | 47% | 
23 | Fc1ccc(-c2ccnc3[nH]c(C(F)(F)F)nc23)c(F)c1 | 11 µM | 36% | 
24 | Fc1ccc(Oc2ccc3nc(C(F)(F)F)[nH]c3n2)c(F)c1 | 12.6 µM | 43% | 

Row | SMILES | EC50 (L6 [1]; [21]) | Activity (L6 [2]) | other results
25 | FC(F)(F)c1nc2c(-c3cc(Cl)cc(Cl)c3)ccnc2[nH]1 | 1.1 µM | 76% | Cmax [3]: 13 µM; half-life [4]: 25.3 h
26 | FC(F)(F)c1ccc(-c2ncnc3[nH]c(C(F)(F)F)nc23)cc1 | 1.2 µM | 45% | 
27 | Fc1ccccc1Oc1ccnc2[nH]c(C(F)(F)F)nc12 | 58 µM | 12% | 
28 | Fc1cc(F)cc(Oc2ccnc3[nH]c(C(F)(F)F)nc23)c1 | 11.9 µM | 43% | 
29 | Fc1cccc(Oc2ccc3nc(C(F)(F)F)[nH]c3n2)c1 | 10.3 µM | 47% | 
30 | Fc1ccc(-c2ccnc3[nH]c(C(F)(F)F)nc23)cc1 | 4.4 µM | 6% | 
31 | Fc1ccccc1Oc1ccc2nc(C(F)(F)F)[nH]c2n1 | 30.8 µM | 30% | 
32 | FC(F)(F)c1cccc(-c2ncnc3[nH]c(C(F)(F)F)nc23)c1 | 1.2 µM | 46% | 
33 | Cc1ccc(-c2ccnc3[nH]c(C(F)(F)F)nc23)cc1 |  |  | EC50 (L6 [1]; l6): Not_active
34 | CC(F)(F)c1nc2c(-c3ccc(C(F)(F)F)cc3)ccnc2[nH]1 |  |  | EC50 (L6 [1]; l6): Not_active
35 | FC(F)(F)c1cccc(Oc2ccnc3[nH]c(C(F)(F)F)nc23)c1 | 3.7 µM | 20% | 
36 | Fc1cccc(Oc2ccc3nc(C(F)(F)F)[nH]c3n2)c1F | 7.1 µM | 39% | 
37 | FC(F)(F)Oc1ccc(-c2ccnc3[nH]c(C(F)(F)F)nc23)cc1 | 0.48 µM | 19% | 
38 | Fc1cc(F)cc(-c2ncnc3[nH]c(C(F)(F)F)nc23)c1 | 4 µM | 54% | 
39 | FC(F)(F)c1cc(-c2ccnc3[nH]c(C(F)(F)F)nc23)cc(C(F)(F)F)c1 | > 100 µM | 45% | 
40 | FC(F)c1nc2c(-c3ccc(C(F)(F)F)cc3)ccnc2[nH]1 |  |  | EC50 (L6 [1]; l6): Not_active
41 | Fc1ccccc1-c1ccc2nc(C(F)(F)F)[nH]c2n1 | 16 µM | 35% | 
42 | Oc1ccc(-c2ccnc3[nH]c(C(F)(F)F)nc23)cc1 |  |  | EC50 (L6 [1]; l6): Not_active
43 | Fc1cccc(-c2ccnc3[nH]c(C(F)(F)F)nc23)c1 | 8.2 µM | 32% | 
44 | FC(F)(F)c1cccc(Oc2ccc3nc(C(F)(F)F)[nH]c3n2)c1 | 1.8 µM | 19% | 
45 | FC(F)(F)Oc1ccc(-c2ccc3nc(C(F)(F)F)[nH]c3n2)cc1 | 1.3 µM | 2% | 
46 | FC(F)(F)c1cc(-c2ncnc3[nH]c(C(F)(F)F)nc23)cc(C(F)(F)F)c1 |  |  | Activity (L6 [20]): Toxic
47 | Fc1cc(F)cc(Oc2ccc3nc(C(F)(F)F)[nH]c3n2)c1 | 3.9 µM | 45% | 
